Assay results published in patent US20070049564A1 (Wyeth, priority 2005, published 2007).
≈ marks a conversion by molar mass, not a printed value. Where two headings read alike, the source gives them in different places.

How the values were obtained:
S. pneumoniae* GC 4465 = assay: MIC, broth microdilution; conditions: Streptococcus pneumoniae
Method: (§1) Antimicrobial susceptibility testing. The in vitro activities of the antibiotics are determined by the broth microdilution method as recommended by the National Committee for Clinical Laboratory Standards (NCCLS) (1). Mueller-Hinton II broth (MHBII)(BBL Cockeysville, Md.) is the medium employed in the testing procedures. Microtiter plates containing serial dilutions of each antimicrobial agent are inoculated with each organism to yield the appropriate density (10^5 CFU/ml) in a 100 μl final volume. The plates are incubated for 18-22 hours at 35° C. in ambient air.
(§2) Representative compounds were first incubated in mouse serum for an hour prior to the in vitro testing against a panel of selected gram-positive and gram-negative bacteria strains. All compounds were also pre-incubated in water for an hour prior to testing as control. Representative compounds of Formula I were incubated in human serum prior to MIC determination.

S. aureus GC 6467 = assay: MIC, broth microdilution; conditions: Staphylococcus aureus
E. coli GC 2272 = assay: MIC, broth microdilution; conditions: Escherichia coli
Method: as §1, §2

S. agalactiae GC 4564 = assay: MIC, broth microdilution; conditions: Streptococcus agalactiae
Staph. = assay: Range of MIC for Staph. strains, including MRSA; conditions: Staphylococcus aureus
Method: as §1, §2

E. coli = assay: Range of MIC for E. coli strains; conditions: Escherichia coli
E. coli GC 4560 = assay: MIC, broth microdilution; conditions: Escherichia coli
E. faecalis GC 2265 = assay: MIC, broth microdilution; conditions: Enterococcus faecalis
E. faecalis GC 4555 = assay: MIC, broth microdilution; conditions: Enterococcus faecalis
E. coli GC 2231 = assay: MIC, broth microdilution; conditions: Escherichia coli
E. coli GC 6465 = assay: MIC, broth microdilution; conditions: Escherichia coli
E. coli GC 2203 = assay: MIC, broth microdilution; conditions: Escherichia coli
S. typhimurium GC 2172 = assay: MIC, broth microdilution; conditions: Salmonella enterica, TYPHIMURIUM
S. aureus GC 6469 = assay: MIC, broth microdilution; conditions: Staphylococcus aureus
E. coli GC 2232 = assay: MIC, broth microdilution; conditions: Escherichia coli
S. aureus GC 6466 = assay: MIC, broth microdilution; conditions: Staphylococcus aureus
E. faecium GC 2243 = assay: MIC, broth microdilution; conditions: Enterococcus faecium
E. faecalis GC 2267 = assay: MIC, broth microdilution; conditions: Enterococcus faecalis
E. coli GC 3226 = assay: MIC, broth microdilution; conditions: Escherichia coli
S. aureus GC 4536 = assay: MIC, broth microdilution; conditions: Staphylococcus aureus
Method: as §1, §2

[1] = read-out: MINIMAL INHIBITORY CONCENTRATION MIC, pre-incubated in Human Serum
[2] = read-out: MINIMAL INHIBITORY CONCENTRATION MIC, pre-incubated in Mouse Serum
[3] = read-out: MINIMAL INHIBITORY CONCENTRATION MIC, pre-incubated in Water

SMILES: CN(C)c1cc(NC(=O)CN(C(=O)OCOC(=O)c2ccc(C(C)(C)C)cc2)C(C)(C)C)c(O)c2c1C[C@H]1C[C@H]3[C@H](N(C)C)C(O)=C(C(N)=O)C(=O)[C@@]3(O)C(O)=C1C2=O [Example 43, ({[(2-{[(5aR,6aS,7S,10aS)-9-(aminocarbonyl)-4,7-bis(dimethylamino)-1,8,10a,11-tetrahydroxy-10,12-dioxo-5,5a,6,6a,7,10,10a,12-octahydrotetracen-2-yl]amino}-2-oxoethyl)(tert-butyl)amino]carbonyl}oxy)methyl 4-tert-butylbenzoate]
- MIC (S. pneumoniae* GC 4465; [1]): 1 µg/mL (≈ 1.22 µM)
- MIC (S. pneumoniae* GC 4465; [2]): < 0.06 µg/mL
- MIC (S. pneumoniae* GC 4465; [3]): 0.5 µg/mL (≈ 0.61 µM)
- MIC (S. aureus GC 6467; GC6467, read-out: MINIMAL INHIBITORY CONCENTRATION MIC, pre-incubated in Human Serum): 32 µg/mL (≈ 39 µM)
- MIC (S. aureus GC 6467; GC6467, read-out: MINIMAL INHIBITORY CONCENTRATION MIC, pre-incubated in Mouse Serum): 0.5 µg/mL (≈ 0.61 µM)
- MIC (S. aureus GC 6467; GC6467, read-out: MINIMAL INHIBITORY CONCENTRATION MIC, pre-incubated in Water): > 64 µg/mL
- MIC (E. coli GC 2272; GC2272, read-out: MINIMAL INHIBITORY CONCENTRATION MIC, pre-incubated in Human Serum): > 64 µg/mL
- MIC (E. coli GC 2272; GC2272, read-out: MINIMAL INHIBITORY CONCENTRATION MIC, pre-incubated in Mouse Serum): 0.5 µg/mL (≈ 0.61 µM)
- MIC (E. coli GC 2272; GC2272, read-out: MINIMAL INHIBITORY CONCENTRATION MIC, pre-incubated in Water): > 64 µg/mL
- MIC (S. agalactiae GC 4564; GC4564, read-out: MINIMAL INHIBITORY CONCENTRATION MIC, pre-incubated in Human Serum): 2 µg/mL (≈ 2.44 µM)
- MIC (S. agalactiae GC 4564; GC4564, read-out: MINIMAL INHIBITORY CONCENTRATION MIC, pre-incubated in Mouse Serum): < 0.06 µg/mL
- MIC (S. agalactiae GC 4564; GC4564, read-out: MINIMAL INHIBITORY CONCENTRATION MIC, pre-incubated in Water): 2 µg/mL (≈ 2.44 µM)
- MIC (Staph.; MRSA, read-out: Range of MIC, Staph (Mouse Serum)): 0.5 to 2 µg/mL (≈ 0.61 to 2.44 µM)
- MIC (Staph.; read-out: Minimum inhibitory concentration (MIC), Staph (Human Serum)): 4 to 64 µg/mL (≈ 4.88 to 78.1 µM)
- MIC (E. coli; 20 h, read-out: Range of MIC, E. coli (Mouse Serum)): 0.25 to 2 µg/mL (≈ 0.305 to 2.44 µM)
- MIC (E. coli; read-out: Minimum inhibitory concentration (MIC), E. coli (Human Serum)): > 64 µg/mL
- MIC (E. coli; read-out: Minimum inhibitory concentration (MIC), E. coli (water)): > 64 µg/mL
- MIC (E. coli; read-out: Range of MIC, E. coli (Water)): > 64 µg/mL
- MIC (E. coli GC 4560; GC4560, read-out: MINIMAL INHIBITORY CONCENTRATION MIC, pre-incubated in Human Serum): 16 µg/mL (≈ 19.5 µM)
- MIC (E. coli GC 4560; GC4560, read-out: MINIMAL INHIBITORY CONCENTRATION MIC, pre-incubated in Mouse Serum): < 0.06 µg/mL
- MIC (E. coli GC 4560; GC4560, read-out: MINIMAL INHIBITORY CONCENTRATION MIC, pre-incubated in Water): 32 µg/mL (≈ 39 µM)
- MIC (E. faecalis GC 2265; GC2265, read-out: MINIMAL INHIBITORY CONCENTRATION MIC, pre-incubated in Human Serum): 8 µg/mL (≈ 9.76 µM)
- MIC (E. faecalis GC 2265; GC2265, read-out: MINIMAL INHIBITORY CONCENTRATION MIC, pre-incubated in Mouse Serum): 0.5 µg/mL (≈ 0.61 µM)
- MIC (E. faecalis GC 2265; GC2265, read-out: MINIMAL INHIBITORY CONCENTRATION MIC, pre-incubated in Water): 32 µg/mL (≈ 39 µM)
- MIC (E. faecalis GC 4555; GC4555, read-out: MINIMAL INHIBITORY CONCENTRATION MIC, pre-incubated in Human Serum): 8 µg/mL (≈ 9.76 µM)
- MIC (E. faecalis GC 4555; GC4555, read-out: MINIMAL INHIBITORY CONCENTRATION MIC, pre-incubated in Mouse Serum): 0.5 µg/mL (≈ 0.61 µM)
- MIC (E. faecalis GC 4555; GC4555, read-out: MINIMAL INHIBITORY CONCENTRATION MIC, pre-incubated in Water): 32 µg/mL (≈ 39 µM)
- MIC (E. coli GC 2231; GC2231, read-out: MINIMAL INHIBITORY CONCENTRATION MIC, pre-incubated in Human Serum): > 64 µg/mL
- MIC (E. coli GC 2231; GC2231, read-out: MINIMAL INHIBITORY CONCENTRATION MIC, pre-incubated in Mouse Serum): 0.5 µg/mL (≈ 0.61 µM)
- MIC (E. coli GC 2231; GC2231, read-out: MINIMAL INHIBITORY CONCENTRATION MIC, pre-incubated in Water): > 64 µg/mL
- MIC (E. coli GC 6465; GC6465, read-out: MINIMAL INHIBITORY CONCENTRATION MIC, pre-incubated in Human Serum): > 64 µg/mL
- MIC (E. coli GC 6465; GC6465, read-out: MINIMAL INHIBITORY CONCENTRATION MIC, pre-incubated in Mouse Serum): 2 µg/mL (≈ 2.44 µM)
- MIC (E. coli GC 6465; GC6465, read-out: MINIMAL INHIBITORY CONCENTRATION MIC, pre-incubated in Water): > 64 µg/mL
- MIC (E. coli GC 2203; GC2203, read-out: MINIMAL INHIBITORY CONCENTRATION MIC, pre-incubated in Human Serum): > 64 µg/mL
- MIC (E. coli GC 2203; GC2203, read-out: MINIMAL INHIBITORY CONCENTRATION MIC, pre-incubated in Mouse Serum): 0.5 µg/mL (≈ 0.61 µM)
- MIC (E. coli GC 2203; GC2203, read-out: MINIMAL INHIBITORY CONCENTRATION MIC, pre-incubated in Water): > 64 µg/mL
- MIC (S. typhimurium GC 2172; [1]): > 64 µg/mL
- MIC (S. typhimurium GC 2172; [2]): 2 µg/mL (≈ 2.44 µM)
- MIC (S. typhimurium GC 2172; [3]): > 64 µg/mL
- MIC (S. aureus GC 6469; GC6469, read-out: MINIMAL INHIBITORY CONCENTRATION MIC, pre-incubated in Human Serum): 32 µg/mL (≈ 39 µM)
- MIC (S. aureus GC 6469; GC6469, read-out: MINIMAL INHIBITORY CONCENTRATION MIC, pre-incubated in Mouse Serum): 1 µg/mL (≈ 1.22 µM)
- MIC (S. aureus GC 6469; GC6469, read-out: MINIMAL INHIBITORY CONCENTRATION MIC, pre-incubated in Water): > 64 µg/mL
- MIC (E. coli GC 2232; GC2232, read-out: MINIMAL INHIBITORY CONCENTRATION MIC, pre-incubated in Human Serum): > 64 µg/mL
- MIC (E. coli GC 2232; GC2232, read-out: MINIMAL INHIBITORY CONCENTRATION MIC, pre-incubated in Mouse Serum): 0.5 µg/mL (≈ 0.61 µM)
- MIC (E. coli GC 2232; GC2232, read-out: MINIMAL INHIBITORY CONCENTRATION MIC, pre-incubated in Water): > 64 µg/mL
- MIC (S. aureus GC 6466; GC6466, read-out: MINIMAL INHIBITORY CONCENTRATION MIC, pre-incubated in Human Serum): 16 µg/mL (≈ 19.5 µM)
- MIC (S. aureus GC 6466; GC6466, read-out: MINIMAL INHIBITORY CONCENTRATION MIC, pre-incubated in Mouse Serum): 0.5 µg/mL (≈ 0.61 µM)
- MIC (S. aureus GC 6466; GC6466, read-out: MINIMAL INHIBITORY CONCENTRATION MIC, pre-incubated in Water): 64 µg/mL (≈ 78.1 µM)
- MIC (E. faecium GC 2243; GC2243, read-out: MINIMAL INHIBITORY CONCENTRATION MIC, pre-incubated in Human Serum): 0.25 µg/mL (≈ 0.305 µM)
- MIC (E. faecium GC 2243; GC2243, read-out: MINIMAL INHIBITORY CONCENTRATION MIC, pre-incubated in Mouse Serum): 0.12 µg/mL (≈ 0.146 µM)
- MIC (E. faecium GC 2243; GC2243, read-out: MINIMAL INHIBITORY CONCENTRATION MIC, pre-incubated in Water): 0.25 µg/mL (≈ 0.305 µM)
- MIC (E. faecalis GC 2267; GC2267, read-out: MINIMAL INHIBITORY CONCENTRATION MIC, pre-incubated in Human Serum): 4 µg/mL (≈ 4.88 µM)
- MIC (E. faecalis GC 2267; GC2267, read-out: MINIMAL INHIBITORY CONCENTRATION MIC, pre-incubated in Mouse Serum): 0.5 µg/mL (≈ 0.61 µM)
- MIC (E. faecalis GC 2267; GC2267, read-out: MINIMAL INHIBITORY CONCENTRATION MIC, pre-incubated in Water): 32 µg/mL (≈ 39 µM)
- MIC (E. coli GC 3226; GC3226, read-out: MINIMAL INHIBITORY CONCENTRATION MIC, pre-incubated in Human Serum): > 64 µg/mL
- MIC (E. coli GC 3226; GC3226, read-out: MINIMAL INHIBITORY CONCENTRATION MIC, pre-incubated in Mouse Serum): 1 µg/mL (≈ 1.22 µM)
- MIC (E. coli GC 3226; GC3226, read-out: MINIMAL INHIBITORY CONCENTRATION MIC, pre-incubated in Water): > 64 µg/mL
- MIC (S. aureus GC 4536; GC4536, read-out: MINIMAL INHIBITORY CONCENTRATION MIC, pre-incubated in Human Serum): 16 µg/mL (≈ 19.5 µM)
- MIC (S. aureus GC 4536; GC4536, read-out: MINIMAL INHIBITORY CONCENTRATION MIC, pre-incubated in Mouse Serum): 1 µg/mL (≈ 1.22 µM)
- MIC (S. aureus GC 4536; GC4536, read-out: MINIMAL INHIBITORY CONCENTRATION MIC, pre-incubated in Water): 32 µg/mL (≈ 39 µM)
